We go through 6 compounds from paper PMC8776228 (International Journal of Molecular Sciences, 2022).

As usually defined, the IC50 is the point on the concentration scale where inhibition reaches its midpoint.

For experiment [1], the system named is M. smegmatis mc^2155. As to the kind of experiment: microbe, parasite or virus in culture. The class given is cell-based, Mycobacterium smegmatis. To be noted: Mycolicibacterium smegmatis.
Experiment [2] relates to M. tuberculosis H37Rv. As to the kind of experiment: microbe, parasite or virus in culture. The class given is cell-based. To be noted: Mycobacterium tuberculosis.
In experiment [3] the target is T1, M. smegmatis DprE1 (Mycolicibacterium smegmatis, UniProt A0R607). To be noted: cited from earlier work.
Experiment [4] addresses T1, M. smegmatis DprE1. As to the kind of experiment: biochemical. On the set-up: species or system Mycobacterium smegmatis.
The test system of experiment [5] is M. smegmatis mc^2155.
The target in experiment [6] is T2, M. smegmatis DprE1 C394A (Mycolicibacterium smegmatis, UniProt A0R607, C386A).
Experiment [7] concerns M. tuberculosis H37Rv.
In another experiment the target is M. smegmatis DprE1 L282V (Mycolicibacterium smegmatis, UniProt A0R607, L274V/L282V). As to the kind of experiment: biochemical.
A further experiment relates to M. kansasii. Particulars: cited from earlier work.
In a further experiment the test system is M. smegmatis. To be noted: cited from earlier work.
Experiment [8] concerns M. smegmatis mc^2155-pJV53H DprE1 L282V.
The subject of another experiment is M. avium. Particulars: cited from earlier work.
A further experiment addresses M. smegmatis DprE1 L282F (Mycolicibacterium smegmatis, UniProt A0R607, L274F/L282F). As to the kind of experiment: biochemical.
Experiment [9] has as its target T3, M. smegmatis DprE1 C394S (Mycolicibacterium smegmatis, UniProt A0R607, C386S).
The subject of the next experiment is M. bovis. Particulars: cited from earlier work.
The subject of a further experiment is M. tuberculosis. Particulars: cited from earlier work.
In the next experiment the test system is M. abscessus. Particulars: cited from earlier work.
The subject of experiment [10] is M. smegmatis mc^2155-pJV53H DprE1 L282F.
Experiment [11] concerns M. tuberculosis H37Rv. This is another data set of the same source.
Experiment [12] has as its target T2, M. smegmatis DprE1 C394A. The experiment can be described thus: biochemical.
Experiment [13] addresses T3, M. smegmatis DprE1 C394S. The experiment can be described thus: biochemical.

In brackets after ≈: the same amount, converted by molar mass. Several values for one entry are separate records, joined by “and”; a condition that tells them apart may be missing. Equal entries are not always repeated. Where two headings read alike, the source gives them in different places.

With `C[C@H]1COC2(CCN(c3nc(=O)c4cc(C(F)(F)F)cc([N+](=O)[O-])c4s3)CC2)O1` [BTZ043], the MIC was determined as 0.008 µg/mL (≈ 0.0185 µM) with M. smegmatis mc^2155 [1] (MC^2155, read-out: MIC BTZ-043) and 0.001 µg/mL (≈ 0.00232 µM) in the experiment with M. tuberculosis H37Rv [2] (read-out: MIC BTZ043). Moreover, at M. smegmatis DprE1 [3], the concentration for half-maximal inhibition (IC50) is 0.004 µM.
On to `NNC(=O)c1ccncc1` [INH, isoniazid], for which the MIC in the experiment on M. tuberculosis H37Rv [2] (read-out: MIC INH) was 0.025 µg/mL (≈ 0.182 µM).
Turning to `CO/N=C1\C[C@]2(C[C@@H]3C[C@@H](C/C=C(\C)C[C@@H](C)/C=C/C=C4\CO[C@@H]5[C@H](O)C(C)=C[C@@H](C(=O)O3)[C@]45O)O2)O[C@H](/C(C)=C/C(C)C)[C@H]1C` [Moxidectin], inhibition on M. smegmatis DprE1 [4] was half-maximal at 6.1 ± 0.9 µM (IC50).
Regarding `CO[C@H]1C[C@H](O[C@@H]2/C(C)=C/C[C@@H]3C[C@@H](C[C@]4(CC[C@H](C)[C@@H](C5CCCCC5)O4)O3)OC(=O)[C@@H]3C=C(C)/C(=N/O)[C@H]4OC/C(=C\C=C\[C@@H]2C)[C@]43O)O[C@@H](C)[C@@H]1O` [Selamectin], the “day at which the limit of detection (1-log CFU/mL) was reached” value in the experiment on M. tuberculosis NTB1 was 11 day; in the experiment on M. tuberculosis H37Rv [11], 22 day. The “time–kill activity against NTB1 compared to H37Rv” value in the experiment on M. tuberculosis NTB1 is given as “more active”. The “^14C uptake” value in the experiment with M. smegmatis mc^2155 [5] and in the experiment with M. tuberculosis H37Rv [7] was “general decrease” throughout. Besides, the “changes in lipid composition associated with inhibition of arabinan synthesis” value in the experiment with M. smegmatis mc^2155 [5] and in the experiment with M. tuberculosis H37Rv [7] was “did not result in significant changes” each time. The “IC50 compared to the wild type enzyme” value was “in the same range” against M. smegmatis DprE1 C394A [6] and “slightly higher” against M. smegmatis DprE1 C394S [9]. For the same compound, the IC50 is 50.6 ± 9.2 µM against M. smegmatis DprE1 L282V; ~2.6 µM and 2.6 µM on M. smegmatis DprE1 [4] (IC50); 1 ± 0.7 µM against M. smegmatis DprE1 L282F; 3.9 ± 1 µM against M. smegmatis DprE1 C394A [12]; 12.1 ± 1.2 µM against M. smegmatis DprE1 C394S [13]. The MIC in the experiment with M. kansasii is 0.5 µg/mL (≈ 0.649 µM); with M. smegmatis, 2 to 4 µg/mL; in the experiment with M. avium it was 16 µg/mL (≈ 20.8 µM); in the experiment with M. bovis, 2 to 4 µg/mL; with M. tuberculosis it was 2 to 4 µg/mL; with M. smegmatis mc^2155 [1] (MC^2155, read-out: MIC SEL), 4 µg/mL (≈ 5.19 µM). Also, the MIC was over 32 µg/mL in the experiment on M. abscessus and 4 µg/mL (≈ 5.19 µM) in the experiment on M. tuberculosis H37Rv [2] (read-out: MIC SEL). The “change in susceptibility compared to wild-type M. smegmatis (MIC)” value in [8] and in experiment [10] was “no changes in their susceptibilities” each time.
As to Ivermectin, the half-inhibitory concentration (IC50) at M. smegmatis DprE1 [4] (read-out: IC50) was 13.2 ± 3.3 µM.
The same measure, in the same setting: the same measure for Milbemycin oxime: 25.5 ± 5.6 µM.
